Results reported in US11612651B2, “Steroid acid-based immunogen enhancers” (priority 2021, dated 2023).

Key:
B3Z cells = test: Antigen-presentation assay using the B3Z reporter system, BMDCs as antigen presenting cells; assay type: cell-based, mouse; settings: BMDCs; molar ratio (bile acid/peptide/conjugate):antigen 4:1; mixed with OVA; FIG. 2
Source text: For this experiment, BMDCs were used as the antigen presenting cells (n=6) and the molar ratio (bile acid/peptide/conjugate): antigen was 4:1. Controls tested included no antigen (“PBS”), antigen alone (“OVA alone”), unconjugated NLS peptide (“SV40NLS”), unconjugated cholic acid mixed with OVA (“CA”), and the positive control peptide SIINFEKL (SEQ ID NO: 9) mixed with OVA (“SIINFEKL”). The dashed line represents the signal obtained with OVA alone. Bile acids: cholic acid (CA); glycodeoxycholic acid (GDCA); glycochenodeoxycholic acid (GCDCA); ursodeoxycholic acid (UDCA); and lithocholic acid (LCA).
The dashed line represents the signal obtained with OVA alone. The readout was taken after 24 h of incubation and error bars represent SD (n=6). For this experiment, BMDCs were used as the antigen presenting cells.
The dashed line represents the signal obtained with OVA alone. Readout was taken after 24 h of incubation from a single experiment. The molar ratio of CA-peptide conjugate: OVA was 22:1. For this experiment, BMDCs were used as the antigen presenting cells.
For this experiment, BMDCs were used as the antigen presenting cells. The dashed line represents the signal obtained with OVA alone. Readout was taken after 24 h of incubation from a single experiment. The molar ratio of CA-peptide conjugate: OVA was as follows: CA-GWG-SV40NLS (12:1); CA-hnRNP M NLS (12:1); CA-NLS2-RPS17 NLS (22:1); CA-HuR NLS (22:1); CA-cMyc NLS (2:1); CA-NLS3-RPS17 NLS (22:1); CA-NLS2-RG-RPS17 NLS (2:1); CA-PQBP1 NLS (8:1); CA-hnRNPA1 M9 NLS (22:1); and CA-SV40 NLS (2:1).
Various bile acid-NLS conjugates were screened using the B3Z reporter system. The B3Z cell line is a T-cell hybridoma specific for the H2-K^b-SIINFEKL complex. Once activated via its TCR, the LacZ reporter gene (under the NFAT promoter control) is expressed. Briefly, 1.5×10^5 BMDCs or 2.5×10^5 MSCs were co-cultured with 5×10^4 B3Z cells treated with the mixing conditions of ovalbumin (OVA) and bile acid-NLS conjugates for overnight at 37° C. with 5% CO2. The following day, all cells were washed twice with PBS (pH 7.4), and the cell pellets were lysed by adding 100 μL of a lysis buffer containing 0.15 mM chlorophenol red-beta-D-galactopyranoside (CPRG) substrate (Calbiochem, La Jolla, Calif.), 0.125% NP40 (EMD Sciences, La Jolla, Calif.), 9 mM MgCl2 (Aldrich, USA) and 100 mM 2-mercaptoethanol in PBS. After a 5- or 24-h incubation at 37° C., absorbance was taken at 570 nm with 636 nm as the reference wavelength. For these experiments, OVA was re-suspended in PBS (pH 7.3) at 5-10 mg/mL. The different bile acid-NLS conjugates were re-suspended in H2O at 10 mg/mL. Bile acid-NLS conjugate: antigen mixtures were prepared at different molar ratios according to Table 2.
Variants of CA-SV40NLS were synthesized in order to explore structure-activity relationships relating to the antigen cross-presentation enhancing activity observed for this conjugate. More particularly, conjugates having different bile acids conjugated to the SV40NLS peptide (SEQ ID NO: 1) were synthesized and their effect on antigen presentation was evaluated by using the B3Z reporter system with the OVA antigen as described in Example 1. […] In FIG. 2, no increase in antigen cross-presentation over the antigen alone (“OVA”) was observed when OVA was mixed with either unconjugated cholic acid (“CA”) or SV40NLS peptide (“SV40NLS”), although lower sensitivity of the B3Z reporter system as compared to the OT-I CD8 T cell-based assay used in FIG. 1 may have been a factor.
Further variants of CA-SV40NLS were synthesized in which the SV40NLS peptide was replaced with peptides comprising other NLS's (Table 3) and the antigen presentation activities of the CA-NLS peptide conjugates were evaluated using the B3Z reporter system as described in Example 1. The following conjugate:antigen molar ratios were tested for each conjugate: 2:1, 4:1, 8:1, 12:1 and 22:1. […]

GII.3 human norovirus = settings: host intestinal cells; free bile acids; cited from earlier work
[1] = tested on: OVA-responding OT-I (CD8) cells; test: Antigen cross-presentation assay: pulsed BMDCs co-cultured with OT-I CD8 T-cells, IFN-gamma by ELISA; assay type: cell-based, mouse; settings: BMDCs pulsed 3 h with highest enhancer:OVA ratios tested; co-culture with OT-I CD8 T-cells; FIG. 1
Experimental: Mouse BMDCs were pulsed for 3 hours with antigen (OVA) alone, cholic acid (CA) alone, a cholic acid-NLS peptide conjugate (CA-SV40NLS) alone, different ratios of CA to antigen (CA:OVA=22:1, 12:1, 8:1, 4:1, and 2:1), or different ratios of an cholic acid-NLS peptide conjugate to antigen (CA-SV40NLS:OVA=22:1, 12:1, 8:1, 4:1, and 2:1). The pulsed BMDCs were then co-cultured with OT-I mouse-derived CD8 T-cells and IFN-gamma levels were quantified as a measure of cross presentation activity.
Mouse bone marrow derived dendritic cells (BMDCs) were generated by flushing the whole marrow from mouse femurs using RPMI™ 1640 supplemented with 10% fetal bovine serum (FBS), 50 U/mL Penicillin-Streptomycin, 2 mM L-glutamine, 10 mM HEPES, 1% MEM Non-essential Amino Acids, 1 mM Sodium Pyruvate, 0.5 mM beta-mercaptoethanol. […] Mature DCs were assessed by flow cytometry for their surface expression of CD3, CD19, NK1.1, CD11c, CD80, CD86, and I-Ab.
To evaluate antigen cross-presentation, cells were seeded at 25×10^3 cells per well in 24-well plates (Corning; Massachusetts, United States), then pulsed with antigens or antigen-containing mixtures at different concentrations for 3 h. […] After 72 hours, supernatants were collected and used to quantify cytokine production by commercial enzyme-linked immunosorbent assays (ELISAs). […]

Structure (SMILES): C[C@H](CCC(=O)O)[C@H]1CC[C@H]2[C@@H]3[C@H](O)C[C@@H]4C[C@H](O)CC[C@]4(C)[C@H]3C[C@H](O)[C@]12C [CA, cholic acid]
- antigen cross-presentation (B3Z response) compared with OVA alone (B3Z cells): no increase
- effect on GII.3 human norovirus infection and replication (GII.3 human norovirus): increase GII.3 human norovirus infection and replication
- increase in the amount of IFN-gamma produced, as compared to BMDCs pre-pulsed with the OVA antigen alone [1]: up to 3 fold
